{"source": "patent US9163042B2", "about": "“Prodrugs of pyridone amides useful as modulators of sodium channels” (VERTEX PHARMACEUTICALS INCORPORATED, priority 2013, dated 2015)", "key": {"[1]": {"experiment": "Monkey oral pharmacokinetic study", "type": "in vivo, cynomolgus monkeys", "method": "(§1) Sample Analysis. […] Before extraction, plasma samples were diluted using blank plasma at an appropriate dilution factor, as necessary, depending on the dose level. […] After centrifugation, the supernatant extract (10 μL) was injected onto the LC/MS/MS system. The HPLC system included a Phenomenex Synergy Kinetix C8 column, 2.6 micron, 2.0 mm diameter×75 mm long eluted with a gradient mobile phase consisting of 0.1% formic acid in water or in acetonitrile.\n(§2) The analytes were detected by MS/MS with Electrospray Ionization (ESI) in the mode of multiple reaction monitoring (MRM). […] The intra-day and inter-day assay accuracy was within 20% of the nominal values. The intra- and inter-day assay variability was ≦20%.\n(§3) Pharmacokinetic Data Analysis.\n(§4) Key pharmacokinetic parameters such as AUCall, AUCextra, Cmax, tmax, Cl, Vss and t1/2 were determined.\n(§5) Statistical Data Analysis. Descriptive statistical data of pharmacokinetic parameters were calculated, including the mean, standard deviation (SD), using Watson LIMS version 7.4 SP3 or Microsoft Excel 2000.\nMale or female cynomolgus monkeys (n=3 per dose group) were administered single nominal PO doses of 10, 40, 100, 300, 500, 750 and 1000 mg/kg of compound 9 by gavage. Compound 9 was formulated in 30% PEG400 and 10% TPGS in water or 5% TPGS, 5% PVP-K30 in 50 mM Citrate, pH 5. […]"}, "Aqueous solubility study": {"experiment": "Aqueous solubility study", "type": "physicochemical", "conditions": "thermodynamic from solid", "method": "The aqueous solubility of compound 9 and 9a were determined according to the following procedure. Solubility data was determined at ambient conditions by equilibrating the compound with water on a shaking bed for 24 hours, followed by centrifugation and separation of the saturated solutions. The pH value of each media was measured before centrifugation, and the saturated solutions were assayed by HPLC."}, "[2]": {"experiment": "Rat oral pharmacokinetic study", "type": "in vivo, Sprague Dawley rats", "method": "as §1, §2, §3, §4, §5\nGroups of male and female Sprague Dawley rats (n=3 per dose group) were administered single nominal oral doses of 10, 100, 400, 640, 1000 mg/kg (for males) and 30, 100, 300, 640, 1000 mg/kg (for females) of compound 9 by gavage. Compound 9 was formulated in either 30% PEG400 and 10% TPGS in water or 5% TPGS, 5% PVP-K30 in 50 mM Citrate, pH 5. Animals had free access to food and water before and after dosing. Blood samples (approximately 0.25 mL each) were collected via a carotid artery catheter prior to dosing and at 0.25, 0.5, 1, 2, 4, 8, 12, 24, 48 and 72 hours post dose. Each blood sample was collected into a tube that was kept on wet ice and contained potassium EDTA as the anticoagulant. Plasma was separated and stored at approximately −70° C. until analysis."}, "[3]": {"experiment": "Rat IV pharmacokinetic study", "type": "in vivo, Sprague Dawley rats", "conditions": "rat, single IV bolus 1 mg/kg of compound 9; LLOQ 2.5 ng/mL", "method": "as §1, §2, §3, §4, §5\nMale Sprague Dawley rats (n=3) were administered a single nominal IV bolus dose of 1 mg/kg of compound 9 via a jugular vein cannula. […] Animals had free access to food and water before and after dosing. Blood samples (approximately 0.25 mL each) were collected via a carotid artery catheter prior to dosing and at 5 min, 10 min, 0.25, 0.5, 1, 2, 4, 8, 12, 24 hours post dose. Each blood sample was collected into a tube that was kept on wet ice and contained potassium EDTA as the anticoagulant. Plasma was separated and stored at approximately −70° C. until analysis.\nPlasma concentration vs. time data were subjected to noncompartmental pharmacokinetic (PK) analysis."}, "human Nav1.8": {"target": "human Nav1.8 (Homo sapiens (Human), UniProt Q9Y5Y9)", "sequence (Q9Y5Y9 whole entry)": "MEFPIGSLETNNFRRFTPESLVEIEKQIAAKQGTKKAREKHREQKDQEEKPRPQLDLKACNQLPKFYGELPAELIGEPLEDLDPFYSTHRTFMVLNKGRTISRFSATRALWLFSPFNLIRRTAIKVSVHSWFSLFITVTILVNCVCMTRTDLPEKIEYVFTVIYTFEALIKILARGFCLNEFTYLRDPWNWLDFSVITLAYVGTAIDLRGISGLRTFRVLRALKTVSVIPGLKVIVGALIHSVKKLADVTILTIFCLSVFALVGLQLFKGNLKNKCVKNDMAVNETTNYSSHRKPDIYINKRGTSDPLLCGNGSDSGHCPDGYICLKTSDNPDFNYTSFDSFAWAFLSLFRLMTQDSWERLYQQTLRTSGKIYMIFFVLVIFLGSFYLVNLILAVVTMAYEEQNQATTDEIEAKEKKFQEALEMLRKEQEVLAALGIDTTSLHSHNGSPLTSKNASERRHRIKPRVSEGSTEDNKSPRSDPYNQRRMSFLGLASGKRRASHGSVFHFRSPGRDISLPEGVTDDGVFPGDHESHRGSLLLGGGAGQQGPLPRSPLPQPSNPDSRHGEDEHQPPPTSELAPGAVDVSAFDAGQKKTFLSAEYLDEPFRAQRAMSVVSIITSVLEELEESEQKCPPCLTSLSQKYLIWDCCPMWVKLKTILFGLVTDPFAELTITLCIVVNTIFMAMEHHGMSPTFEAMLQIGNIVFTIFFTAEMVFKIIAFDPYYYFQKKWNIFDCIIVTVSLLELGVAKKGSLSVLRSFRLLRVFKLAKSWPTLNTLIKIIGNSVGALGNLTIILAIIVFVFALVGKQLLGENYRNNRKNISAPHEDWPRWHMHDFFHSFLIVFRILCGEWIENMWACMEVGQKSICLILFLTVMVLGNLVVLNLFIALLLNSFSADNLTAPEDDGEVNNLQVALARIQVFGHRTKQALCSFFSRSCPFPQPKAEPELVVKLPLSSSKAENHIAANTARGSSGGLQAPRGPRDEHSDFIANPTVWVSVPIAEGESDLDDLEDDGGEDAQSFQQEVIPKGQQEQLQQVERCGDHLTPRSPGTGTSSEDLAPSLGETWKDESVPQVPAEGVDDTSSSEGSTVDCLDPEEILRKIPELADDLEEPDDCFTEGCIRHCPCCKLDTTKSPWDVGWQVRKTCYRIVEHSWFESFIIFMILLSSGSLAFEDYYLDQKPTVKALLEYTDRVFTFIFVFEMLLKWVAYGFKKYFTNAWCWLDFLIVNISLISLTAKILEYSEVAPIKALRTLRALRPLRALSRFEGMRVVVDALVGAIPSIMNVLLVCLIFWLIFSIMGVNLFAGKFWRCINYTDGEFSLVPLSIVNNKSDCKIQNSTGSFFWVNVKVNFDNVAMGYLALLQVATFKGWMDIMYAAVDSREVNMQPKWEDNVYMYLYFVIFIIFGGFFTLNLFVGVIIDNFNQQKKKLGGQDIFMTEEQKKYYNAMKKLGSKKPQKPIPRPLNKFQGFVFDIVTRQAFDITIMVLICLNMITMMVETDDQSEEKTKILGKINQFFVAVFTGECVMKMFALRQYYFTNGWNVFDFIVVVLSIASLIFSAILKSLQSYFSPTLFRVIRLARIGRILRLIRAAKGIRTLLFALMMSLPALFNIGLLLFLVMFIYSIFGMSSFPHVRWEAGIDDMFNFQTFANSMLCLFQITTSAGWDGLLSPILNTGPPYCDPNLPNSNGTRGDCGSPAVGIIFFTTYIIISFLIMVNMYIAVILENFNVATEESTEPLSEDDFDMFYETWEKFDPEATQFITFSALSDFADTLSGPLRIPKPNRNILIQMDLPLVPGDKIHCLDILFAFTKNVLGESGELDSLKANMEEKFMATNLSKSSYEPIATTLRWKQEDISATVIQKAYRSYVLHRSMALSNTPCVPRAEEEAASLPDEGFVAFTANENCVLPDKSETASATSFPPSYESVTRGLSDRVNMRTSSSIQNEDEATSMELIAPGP", "experiment": "E-VIPR optical membrane potential assay with electrical stimulation (NaV1.8 IC50 activity)", "type": "cell-based", "text": "Sodium channels are voltage-dependent proteins that can be activated by inducing membrane voltage changes by applying electric fields. The electrical stimulation instrument and methods of use are described in Ion Channel Assay Methods PCT/US01/21652, herein incorporated by reference and are referred to as E-VIPR. The instrument comprises a microtiter plate handler, an optical system for exciting the coumarin dye while simultaneously recording the coumarin and oxonol emissions, a waveform generator, a current- or voltage-controlled amplifier, and a device for inserting electrodes in well. Under integrated computer control, this instrument passes user-programmed electrical stimulus protocols to cells within the wells of the microtiter plate.\n24 hours before the assay on E-VIPR, HEK cells expressing human Nav1.8 were seeded in 384-well poly-lysine coated plates at 15,000-20,000 cells per well. […] Cells were grown in vented cap flasks, in 90% humidity and 5% CO2.\n1) Pre-spotted compounds (in neat DMSO) into compound plates. […] Final compound plate volume was 80 μL (80-fold intermediate dilution from 1 μL DMSO spot; 160-fold final dilution after transfer to cell plate).\n2) Prepared Hexyl Dye Solution.\n3) Prepared cell plates. On the day of the assay, medium was aspirated and cells were washed three times with 100 μL of Bath1 Solution, maintaining 25 μL residual volume in each well.\n4) Dispensed 25 μL per well of Hexyl Dye Solution into cell plates. Incubated for 20-35 minutes at room temp or ambient conditions.\n5) Dispensed 80 μL per well of Bath1 into compound plates. Acid Yellow-17 (1 mM) was added and Potassium Chloride was altered from 4.5 to 20 mM depending on the NaV subtype and assay sensitivity.\n6) Washed cell plates three times with 100 μL per well of Bath1, leaving 25 μL of residual volume. […] Incubated for 20-35 minutes at room temp/ambient condition.\n7) Read Plate on E-VIPR. […] A pre-stimulus recording was performed for 0.5 seconds to obtain the un-stimulated intensities baseline. The stimulatory waveform was followed by 0.5 seconds of post-stimulation recording to examine the relaxation to the resting state.\nData was analyzed and reported as normalized ratios of emission intensities measured in the 460 nm and 580 nm channels. The response as a function of time was reported as the ratios obtained using the following formula: […]\nThe data was further reduced by calculating the initial (Ri) and final (Rf) ratios. These were the average ratio values during part or all of the pre-stimulation period, and during sample points during the stimulation period. The response to the stimulus R=Rf/Ri was then calculated and reported as a function of time.\nControl responses were obtained by performing assays in the presence of a compound with the desired properties (positive control), such as tetracaine, and in the absence of pharmacological agents (negative control). Responses to the negative (N) and positive (P) controls were calculated as above."}}, "note": "Read-outs that look alike come from different tables or passages of the source.", "data": [{"compound": "Cc1cc(F)ccc1Oc1cc(C(F)(F)F)ccc1C(=O)Nc1ccn(COP(=O)(O)O)c(=O)c1", "note": "[Compound 9, (4-(2-(4-fluoro-2-methylphenoxy)-4-(trifluoromethyl)benzamido)-2-oxopyridin-1(2H)-yl)methyl dihydrogen phosphate]", "values": [{"measurement": "plasma concentrations of compound 9", "setting": "[1]; monkey, single PO doses 10-1000 mg/kg of compound 9, LLOQ 10.0 to 25.0 ng/mL", "value": "below LLOQ for the majority of the samples"}, {"measurement": "in vivo conversion of prodrug into parent compound", "setting": "[1]; monkeys", "value": "converted in vivo into compound 9a"}, {"measurement": "solubility at 24 h", "setting": "Aqueous solubility study; aqueous medium, aqueous buffer, pH 3, crystalline, ambient conditions, 24 hours, read-out: Solubility", "value": 110, "unit": "µg/mL"}, {"measurement": "solubility at 24 h", "setting": "Aqueous solubility study; aqueous medium, aqueous buffer, pH 3.3, crystalline, ambient conditions, 24 hours, read-out: Solubility", "value": 240, "unit": "µg/mL"}, {"measurement": "solubility at 24 h", "setting": "Aqueous solubility study; aqueous medium, aqueous buffer, pH 5, crystalline, ambient conditions, 24 hours, read-out: Solubility", "value": 420, "unit": "µg/mL"}, {"measurement": "solubility at 24 h", "setting": "Aqueous solubility study; aqueous medium, aqueous buffer, pH 7, crystalline, ambient conditions, 24 hours, read-out: Solubility", "value": 500, "unit": "µg/mL"}, {"measurement": "solubility at 24 h", "setting": "Aqueous solubility study; aqueous medium, aqueous buffer, pH 8, crystalline, ambient conditions, 24 hours, read-out: Solubility", "value": 2240, "unit": "µg/mL"}, {"measurement": "solubility at 24 h", "setting": "Aqueous solubility study; aqueous medium, simulated gastric fluid, pH 1, crystalline, ambient conditions, 24 hours, read-out: Solubility", "value": 2, "unit": "µg/mL"}, {"measurement": "solubility at 24 h", "setting": "Aqueous solubility study; water, read-out: aqueous solubility in water", "value": "~300", "unit": "µg/mL"}, {"measurement": "plasma concentrations of compound 9", "setting": "[2]; rat, single oral doses 10-1000 mg/kg of compound 9, LLOQ 2.5 to 25 ng/mL", "value": "below LLOQ for the majority of the samples"}, {"measurement": "in vivo conversion of prodrug into parent compound", "setting": "[2]; rats", "value": "converted in vivo into compound 9a"}, {"measurement": "plasma concentrations of compound 9", "setting": "[3]", "value": "below LLOQ for the majority of the samples"}, {"measurement": "IC50", "setting": "human Nav1.8", "value": 330, "unit": "nM"}]}]}
